{"source": "patent US9180174B2", "about": "“Conjugates comprising mannan and myelin oligodentrocyte glycoprotein (MOG)” (priority 2008, dated 2015)", "key": {"PLP139-151-EAE": {"tested_on": "PLP139-151-EAE", "assay": "Prophylactic vaccination before PLP139-151-EAE induction, clinical score", "type": "in vivo, SJL/J mice", "details": "FIG. 10; for clinical score (peak): 6-grade scale, 0.5 = weight loss", "method": "(§1) Groups of female animals (age range 6-10 week old C57BL/6 or SJL/J mice and 12-15 week old Lewis rats) were immunized intra-dermally with 100 μl solution containing 30 μg peptide (MOG35-55) or 50 μg PLP139-151 peptide for mice and 30 μg MBP83-99 for Lewis rats) conjugated to 70 μg oxidized or reduced mannan diluted in bi-carbonate buffer, pH 9.0. As controls, age matched groups of animals were vaccinated with oxidized or reduced mannan alone, saline or 30-50 μg of peptide alone. Three consecutive vaccinations were performed spaced 15 days apart. Fifteen days after the last vaccination EAE was induced.\nEAE was induced in SJL/J mice using a standard protocol. 150 μg of PLP139-151 was dissolved in PBS and emulsified in an equal volume of CFA (containing […] of heat killed Mycobacterium Tuberculosis HR37a, Sigma). On Day 0 (day of disease induction), one s.c injection was given by injecting 150 μg PLP139-151/200 μl per mouse in both of the flanks. Each mouse also received 400 ng pertussis toxin (Sigma, P2980) (i.p) dissolved in 200 μl PBS. On day 2, mice were received a booster of pertussis toxin (200 ng pertussis toxin dissolved in 200 μl PBS per mouse) Animals were daily evaluated for clinical signs of disease, starting from day 1 post immunisation, using a 6-grade clinical scale: 0, normal animal; 0.5, weight loss; 1, inability to elevate the tail above the horizontal level, tail weakness; 2, tail paralysis; 3, tail paralysis/hind limb paresis; 4, hind limb paralysis/forelimb weakness; 5, quadriplegia/moribund; 6, death from EAE. Moreover, animals were daily weighted throughout the entire experimental period."}, "splenocytes [1]": {"tested_on": "splenocytes", "assay": "T cell priming and proliferation assay, [3H]-thymidine incorporation, ex vivo MOG35-55 recall", "type": "cell-based, C57BL/6 mice", "details": "day 25 post EAE induction, versus mannan alone or PBS; FIGS. 7 and 8", "method": "Isolated splenocytes were cultured for 72 h in 96-well plates in RPMI 1640 (Invitrogen Life Technologies, Gaithersburg, Md.) containing 10% heat-inactivated FCS, 50 μM 2-ME, and increasing concentrations of MOG35-55 peptide. Cells were stimulated in triplicate at 2×10^6 cells/ml in round-bottom, 96-well plates (Costar). Cells were pulsed with 1 μCi/5×10^5 cells [^3H]-thymidine in triplicate (Amersham Radiochemicals) for the last 16 h of culture. [^3H]-thymidine incorporation was measured by liquid scintillation counting (Wallac, Turku, Finland). Results are expressed as the stimulation index (ratio between radioactivity counts of cells cultured in presence of peptide and cells cultured with media alone)."}, "MOG35-55-EAE [2]": {"tested_on": "MOG35-55-EAE", "assay": "Prophylactic vaccination before MOG35-55-EAE induction, clinical score and body weight", "type": "in vivo, C57BL/6 mice", "details": "for protection from MOG35-55-EAE development (clinical score): three vaccinations 15 days apart, EAE induced 15 days after the last, FIG. 1"}, "MOG35-55-EAE [3]": {"tested_on": "MOG35-55-EAE", "assay": "Histopathological analysis of spinal cord and brain after MOG35-55-EAE induction", "type": "in vivo, C57BL/6 mice"}, "splenocytes [4]": {"tested_on": "splenocytes", "assay": "Cytokines in splenocyte culture supernatants (cytometric bead array, IL-17 ELISA)", "type": "cell-based, C57BL/6 mice", "details": "10 μg/ml MOG35-55, day 25 post EAE induction; FIG. 9", "from_the_text": "The mouse Th1/Th2 cytokine cytometric bead array kit (BD Biosciences) was used to measure cytokine levels in culture supernatants according to the manufacturer's instructions. The cytokines measured with this kit were: IL-2, IL-4, IL-5, IFN-γ and TNF-α. In addition a mouse IL-17 ELISA set (R&D Systems, Germany) was used to measure cytokine secretion from splenocyte cell culture supernatants according to manufacturer's instructions. The sensitivity of the assay for different cytokines was as follows: IL-2, IL-4 and IL-5=5.0 pg/ml; IFN-γ=2.5 pg/ml; TNF-α=6.3 pg/ml."}, "EAE": {"tested_on": "EAE", "assay": "EAE in animal models (summary statements)", "type": "in vivo", "details": "unconjugated peptide", "method": "as §1"}, "[5]": {"details": "24 days after EAE induction, FIG. 5"}}, "note": "Ends that are not written are not given here.", "data": [{"substance": "oxidized mannan-PLP139-151: PLP139-151 peptide with a [(Lys-Gly)5] bridge conjugated to oxidized mannan via Schiff base formation", "values": [{"measurement": "clinical score (peak)", "setting": "PLP139-151-EAE", "result": 0.5}, {"measurement": "induction of / protection from PLP139-151-EAE", "setting": "PLP139-151-EAE", "result": "did not induce EAE"}, {"measurement": "induction of / protection from PLP139-151-EAE", "setting": "PLP139-151-EAE; listed as PLP139-151-oxidized mannan", "result": "completely protected"}]}, {"substance": "oxidized mannan-MOG35-55: MOG35-55 peptide with a [(Lys-Gly)5] bridge conjugated to oxidized mannan via Schiff base formation (MEVGWYRSPFSRVVHLYRNGK; also: (Lys-Gly)5 bridge, site not given here, conjugated to oxidized mannan via Schiff base; UniProt Q61885 63-83, looked up, fragment)", "values": [{"measurement": "proliferation of splenocytes", "setting": "splenocytes [1]", "result": "Significant reduced proliferation"}, {"measurement": "wasting symptoms (daily weight measurement)", "setting": "MOG35-55-EAE [2]; FIG. 2", "result": "absence of wasting symptoms"}, {"measurement": "protection from MOG35-55-EAE development (clinical score)", "setting": "MOG35-55-EAE [2]", "result": "significant protection"}, {"measurement": "protection from MOG35-55-EAE development (clinical score)", "setting": "MOG35-55-EAE [2]; listed as MOG35-55 peptide conjugated to oxidized mannan", "result": "greatest degree of protection"}, {"measurement": "demyelinating lesions in the spinal cord", "setting": "MOG35-55-EAE [3]; [5]", "result": "no demyelinating lesions"}, {"measurement": "inflammatory infiltration in the spinal cord", "setting": "MOG35-55-EAE [3]; [5]", "result": "little inflammatory infiltration"}, {"measurement": "inflammatory and demyelination index, brain and spinal cord", "setting": "MOG35-55-EAE [3]; individual mice, FIG. 6", "result": "marked reduction"}, {"measurement": "amount of IL-17 secreted by MOG35-55 specific T cells", "setting": "splenocytes [4]", "result": "reduction"}, {"measurement": "levels of Th1 cytokines (IFN-γ, TNF-α, IL-2)", "setting": "splenocytes [4]", "result": "reduction"}]}, {"substance": "H-Glu-Asn-Pro-Val-Val-His-Phe-Phe-Lys-Asn-Ile-Val-Thr-Pro-Arg-Thr-Pro-OH (H-ENPVVHFFKNIVTPRTP-OH) [MBP83-99]", "values": [{"measurement": "induction of EAE by the linear peptide", "setting": "EAE", "result": "induce EAE"}]}, {"substance": "reduced mannan-PLP139-151: PLP139-151 peptide with a [(Lys-Gly)5] bridge conjugated to mannan, reduced with sodium borohydride", "values": [{"measurement": "clinical score (peak)", "setting": "PLP139-151-EAE", "result": 0.5}, {"measurement": "induction of / protection from PLP139-151-EAE", "setting": "PLP139-151-EAE", "result": "did not induce EAE"}]}, {"substance": "H-Met-Glu-Val-Gly-Trp-Tyr-Arg-Pro[Ser]-Pro-Phe-Ser-Arg-Val-Val-His-Leu-Tyr-Arg-Asn-Gly-Lys-OH [MOG35-55, reference compound]", "values": [{"measurement": "induction of EAE by the linear peptide", "setting": "EAE", "result": "induce EAE"}, {"measurement": "proliferation of splenocytes", "setting": "splenocytes [1]", "result": "did not show a reduction"}, {"measurement": "disease course after day 20 of disease progression", "setting": "MOG35-55-EAE [2]; after day 20, FIGS. 3 and 4", "result": "exacerbated"}, {"measurement": "EAE compared to non vaccinated controls at initial stages of disease", "setting": "MOG35-55-EAE [2]; initial stages, FIGS. 3 and 4", "result": "significantly lower"}, {"measurement": "susceptibility to MOG-EAE after vaccination with peptide alone", "setting": "MOG35-55-EAE [2]; three prior challenges with unconjugated peptide, FIGS. 3 and 4", "result": "still susceptible to MOG-EAE"}, {"measurement": "delay of EAE initiation", "setting": "MOG35-55-EAE [2]; versus non-vaccinated controls, FIGS. 3 and 4", "result": 3, "unit": "days"}]}, {"substance": "reduced mannan-MOG35-55: MOG35-55 peptide with a [(Lys-Gly)5] bridge conjugated to mannan, reduced with sodium borohydride (MEVGWYRSPFSRVVHLYRNGK; also: (KG)5 bridge, site not given here, conjugated to mannan, reduced with sodium borohydride; UniProt Q61885 63-83, looked up, fragment)", "values": [{"measurement": "proliferation of splenocytes", "setting": "splenocytes [1]", "result": "Significant reduced proliferation"}, {"measurement": "protection from MOG35-55-EAE development (clinical score)", "setting": "MOG35-55-EAE [2]", "result": "significant protection"}, {"measurement": "protection from MOG35-55-EAE development (clinical score)", "setting": "MOG35-55-EAE [2]; listed as MOG35-55 peptide conjugated to reduced mannan", "result": "significant inhibition from disease manifestation"}, {"measurement": "extent of lymphocyte infiltration and demyelination (overall protective effect)", "setting": "MOG35-55-EAE [3]; [5]", "result": "Intermediate protective effects"}, {"measurement": "amount of IL-17 secreted by MOG35-55 specific T cells", "setting": "splenocytes [4]", "result": "reduction"}, {"measurement": "levels of Th1 cytokines (IFN-γ, TNF-α, IL-2)", "setting": "splenocytes [4]", "result": "reduction"}]}, {"substance": "H-His-Ser-Leu-Gly-Lys-Trp-Leu-Gly-His-Pro-Asp-Lys-Phe-OH (H-HSLGKWLGHPDKF-OH) [PLP139-151]", "values": [{"measurement": "induction of EAE by the linear peptide", "setting": "EAE", "result": "induce EAE"}]}]}
